Assay results published in ChEMBL document CHEMBL4665624, “Synthesis of 5-(4-(1H-phenanthro[9,10-d]imidazol-2-yl)benzylidene)thiazolidine-2,4-dione as promising DNA and serum albumin-binding agents and evaluation of antitumor activity” (Eur J Med Chem, 2019).
pIC50: −log10 of the molar value. Calls of active or inactive are those of the source. No cut-off for these calls is given here.

Tests used:
Albumin [1] = target: T1, Albumin (Bos taurus, UniProt P02769); assay: Binding affinity to bovine serum albumin assessed as spontaneous interaction by measuring change in gibbs free energy at 298K by thermodynamic based analysis; format: ADME, cell-free; details: cattle
T1 sequence (P02769 whole entry): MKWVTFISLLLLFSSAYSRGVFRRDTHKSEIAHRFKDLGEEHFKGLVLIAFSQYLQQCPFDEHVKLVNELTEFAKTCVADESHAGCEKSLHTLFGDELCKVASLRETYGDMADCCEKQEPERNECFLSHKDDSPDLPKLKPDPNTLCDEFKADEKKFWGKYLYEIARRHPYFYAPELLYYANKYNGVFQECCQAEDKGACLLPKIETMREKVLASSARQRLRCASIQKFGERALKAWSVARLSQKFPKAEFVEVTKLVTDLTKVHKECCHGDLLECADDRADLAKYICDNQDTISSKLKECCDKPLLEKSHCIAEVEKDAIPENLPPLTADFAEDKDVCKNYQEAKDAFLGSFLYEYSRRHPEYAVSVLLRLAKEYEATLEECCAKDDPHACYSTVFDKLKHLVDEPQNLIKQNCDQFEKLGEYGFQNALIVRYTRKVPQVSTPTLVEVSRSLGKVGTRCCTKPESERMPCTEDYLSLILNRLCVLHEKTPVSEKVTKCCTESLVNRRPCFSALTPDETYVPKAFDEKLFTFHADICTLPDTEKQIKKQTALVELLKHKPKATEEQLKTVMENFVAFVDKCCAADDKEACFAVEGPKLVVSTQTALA

HCC 2998 = assay: Antitumor activity against human HCC2998 cells assessed as cell growth inhibition at 10 uM incubated for 48 hrs by sulforhodamine B assay; format: functional; details: read-out: GI
CCRF-CEM = assay: Antitumor activity against human CCRF-CEM cells assessed as cell growth inhibition at 10 uM incubated for 48 hrs by sulforhodamine B assay; format: functional; details: read-out: GI
MOLT-4 = assay: Antitumor activity against human MOLT4 cells assessed as cell growth inhibition at 10 uM incubated for 48 hrs by sulforhodamine B assay; format: functional; details: read-out: GI
A549 [2] = assay: Cytotoxicity against human A549/ATCC assessed as reduction in cell viability at 0.1 uM after 48 hrs by MTT assay; format: functional
HEK293 [3] = assay: Cytotoxicity against human HEK293 assessed as reduction in cell viability at 0.01 uM after 48 hrs by MTT assay; format: cell-based; details: hek293, 48 h
DNA [4] = assay: Binding affinity to human DNA in blood assessed as Stern-Volmer quenching constant by fluorescence emission spectrum analysis; format: tissue-based
SK-OV-3 = assay: Antitumor activity against human SK-OV-3 cells assessed as cell growth inhibition at 10 uM incubated for 48 hrs by sulforhodamine B assay; format: functional; details: read-out: GI
Albumin [5] = target: T2, Albumin (Homo sapiens, UniProt P02768); assay: Binding affinity to human serum albumin assessed as decrease in emission peak intensity band at 348 nm at 0-13 uM by fluorescence emission spectroscopy; format: ADME, cell-free; details: 0.348 µM
T2 sequence (P02768 whole entry): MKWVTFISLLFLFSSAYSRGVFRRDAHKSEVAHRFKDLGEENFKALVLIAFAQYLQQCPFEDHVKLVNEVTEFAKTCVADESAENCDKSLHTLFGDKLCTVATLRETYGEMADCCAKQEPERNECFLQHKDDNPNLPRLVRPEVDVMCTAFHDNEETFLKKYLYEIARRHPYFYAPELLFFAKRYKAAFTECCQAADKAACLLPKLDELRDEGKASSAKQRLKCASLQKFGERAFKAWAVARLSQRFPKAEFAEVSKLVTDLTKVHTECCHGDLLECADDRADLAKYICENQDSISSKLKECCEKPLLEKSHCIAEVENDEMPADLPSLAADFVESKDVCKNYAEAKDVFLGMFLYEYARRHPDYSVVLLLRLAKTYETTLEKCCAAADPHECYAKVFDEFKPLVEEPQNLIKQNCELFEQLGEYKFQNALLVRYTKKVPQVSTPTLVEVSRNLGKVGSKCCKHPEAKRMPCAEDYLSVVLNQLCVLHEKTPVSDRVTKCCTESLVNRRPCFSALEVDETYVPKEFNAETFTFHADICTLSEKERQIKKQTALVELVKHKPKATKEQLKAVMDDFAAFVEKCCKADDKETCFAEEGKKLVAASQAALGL

Calf thymus DNA [6] = assay: Binding affinity to calf thymus DNA assessed as quenching in emission band at 600 nm by ethidium bromide competitive displacement assay; format: nucleic-acid assay; details: Bos taurus
Calf thymus DNA [7] = assay: Binding affinity to minor groove of calf thymus DNA assessed as ICD band intensity between 350 and 400 nm at 1 uM by CD spectroscopy; format: nucleic-acid assay; details: Bos taurus
Albumin [8] = target: T2, Albumin; assay: Binding affinity to human serum albumin assessed as Stern-Volmer quenching constant by fluorescence emission spectroscopy; format: ADME, cell-free
Calf thymus DNA [9] = assay: Binding affinity to calf thymus DNA assessed as hypochromic effect by measuring decrease in intensity of absorption band at 398 nm at 20 uM by UV-Vis absorption spectrophotometric method; details: Bos taurus
MCF7 = assay: Antitumor activity against human MCF7 cells assessed as cell growth inhibition at 10 uM incubated for 48 hrs by sulforhodamine B assay; format: functional; details: read-out: GI
A549 [10] = assay: Cytotoxicity against human A549/ATCC assessed as reduction in cell viability at 10 uM after 48 hrs by MTT assay; format: functional
A498 = assay: Antitumor activity against human A498 cells assessed as cell growth inhibition at 10 uM incubated for 48 hrs by sulforhodamine B assay; format: functional; details: read-out: GI
HCT-116 = assay: Antitumor activity against human HCT116 cells assessed as cell growth inhibition at 10 uM incubated for 48 hrs by sulforhodamine B assay; format: functional; details: read-out: GI
NCI/ADR-RES = assay: Antitumor activity against human NCI/ADR-RES cells assessed as cell growth inhibition at 10 uM incubated for 48 hrs by sulforhodamine B assay; format: functional; details: read-out: GI
DNA [11] = assay: Binding affinity to human DNA in blood assessed as DNA intercalation by measuring binding constant by UV-Vis spectral titration analysis; format: tissue-based
HEK293 [12] = assay: Cytotoxicity against human HEK293 assessed as reduction in cell viability at 100 uM after 48 hrs by MTT assay; format: cell-based; details: hek293, 48 h
NCI-H226 = assay: Antitumor activity against human NCI-H226 assessed as cell growth inhibition at 10 uM incubated for 48 hrs by sulforhodamine B assay; format: functional; details: read-out: GI
Calf thymus DNA [13] = assay: Binding affinity to calf thymus DNA assessed as quenching constant by fluorescence emission spectroscopic analysis; format: nucleic-acid assay; details: Bos taurus
Hs-578T = assay: Antitumor activity against human HS 578T cells assessed as cell growth inhibition at 10 uM incubated for 48 hrs by sulforhodamine B assay; format: functional; details: read-out: GI
[14] = Ratio of Kb for human DNA in blood to Kb for calf thymus DNA
SN12C = assay: Antitumor activity against human SN12C cells assessed as cell growth inhibition at 10 uM incubated for 48 hrs by sulforhodamine B assay; format: functional; details: read-out: GI
SR = assay: Antitumor activity against human SR cells assessed as cell growth inhibition at 10 uM incubated for 48 hrs by sulforhodamine B assay; format: functional; details: read-out: GI
DNA [15] = assay: Binding affinity to human DNA in blood assessed as DNA intercalation by measuring increase in fluorescence emission intensity at 498 nm at 20 uM by fluorescence emission spectral analysis; format: tissue-based
DNA [16] = assay: Binding affinity to human DNA in blood assessed as binding constant by fluorescence emission spectrum analysis; format: tissue-based
DNA [17] = assay: Binding affinity to human DNA in blood assessed as quenching constant by fluorescence emission spectrum analysis; format: tissue-based
Albumin [18] = target: T2, Albumin; assay: Binding affinity to human serum albumin assessed as binding constant by UV-Vis absorption spectroscopy; format: ADME, cell-free
NCI-H460 = assay: Antitumor activity against human NCI-H460 assessed as cell growth inhibition at 10 uM incubated for 48 hrs by sulforhodamine B assay; format: functional; details: read-out: GI
RPMI-8226 = assay: Antitumor activity against human RPMI8226 cells assessed as cell growth inhibition at 10 uM incubated for 48 hrs by sulforhodamine B assay; format: functional; details: read-out: GI
HEK293 [19] = assay: Cytotoxicity against human HEK293 assessed as reduction in cell viability at 0.1 uM after 48 hrs by MTT assay; format: cell-based; details: hek293, 48 h
A549 [20] = assay: Cytotoxicity against human A549/ATCC assessed as reduction in cell viability after 48 hrs by MTT assay; format: functional, cell-based; details: A549, 48 h
PC-3 = assay: Antitumor activity against human PC-3 cells assessed as cell growth inhibition at 10 uM incubated for 48 hrs by sulforhodamine B assay; format: functional; details: read-out: GI
A549 [21] = assay: Cytotoxicity against human A549/ATCC assessed as reduction in cell viability at 100 uM after 48 hrs by MTT assay; format: functional
NCI-H522 = assay: Antitumor activity against human NCI-H522 cells assessed as cell growth inhibition at 10 uM incubated for 48 hrs by sulforhodamine B assay; format: functional; details: read-out: GI
LOX IMVI = assay: Antitumor activity against human LOX IMVI cells assessed as cell growth inhibition at 10 uM incubated for 48 hrs by sulforhodamine B assay; format: functional; details: read-out: GI
Albumin [22] = target: T2, Albumin; assay: Binding affinity to human serum albumin assessed as appearance of new absorption band at 400 nm at 0-7 uM by UV-Vis absorption spectroscopy; format: ADME, cell-free; details: 0.4 µM
UACC-62 = assay: Antitumor activity against human UACC-62 cells assessed as cell growth inhibition at 10 uM incubated for 48 hrs by sulforhodamine B assay; format: functional; details: read-out: GI
HEK293 [23] = assay: Cytotoxicity against human HEK293 assessed as reduction in cell viability at 1 uM after 48 hrs by MTT assay; format: cell-based; details: hek293, 48 h
Calf thymus DNA [24] = assay: Binding affinity to calf thymus DNA assessed as increase in fluorescence emission intensity at 468 nm at 20 uM by fluorescence emission spectroscopic analysis; format: nucleic-acid assay; details: Bos taurus
OVCAR-8 = assay: Antitumor activity against human OVCAR-8 cells assessed as cell growth inhibition at 10 uM incubated for 48 hrs by sulforhodamine B assay; format: functional; details: read-out: GI
Albumin [25] = target: T1, Albumin; assay: Binding affinity to bovine serum albumin assessed as appearance of new fluorescence band at 510 nm at 0-12 uM by fluorescence emission spectrum analysis; format: ADME, cell-free; details: cattle

Question: With `O=C1NC(=O)/C(=C/c2ccc(-c3nc4c5ccccc5c5ccccc5c4[nH]3)cc2)S1` as the compound, how does the deltaG (Albumin [1]) read?
Answer: -38 kJ/mol

Question: And the inhibition of growth at 10 µM (HCC 2998)?
Answer: < 10%

Question: What about the inhibition of growth at 10 µM (CCRF-CEM) of the same compound?
Answer: 65.2%

Question: And the inhibition of growth at 10 µM (MOLT-4)?
Answer: 47.1%

Question: What about the Activity (A549 [2]) of the same compound?
Answer: 59%

Question: And the Activity (HEK293 [3])?
Answer: 4%

Question: What about the KSV (DNA [4]) of the same compound?
Answer: 3.46 10^3/M

Question: And the inhibition of growth at 10 µM (SK-OV-3)?
Answer: < 10%

Question: What about the Activity (Albumin [5]) of the same compound?
Answer: Active

Question: What about the Activity (Calf thymus DNA [6]) of the same compound?
Answer: Active

Question: And the Activity (Calf thymus DNA [7])?
Answer: inactive

Question: And the KSV (Albumin [8])?
Answer: 3.01 10^6/M

Question: What about the Activity (Calf thymus DNA [9]) of the same compound?
Answer: Active

Question: What about the inhibition of growth at 10 µM (MCF7) of the same compound?
Answer: 46.1%

Question: And the Activity (A549 [10])?
Answer: 78%

Question: And the inhibition of growth at 10 µM (A498)?
Answer: 93%

Question: What about the inhibition of growth at 10 µM (HCT-116) of the same compound?
Answer: 65.5%

Question: And the inhibition of growth at 10 µM (NCI/ADR-RES)?
Answer: < 10%

Question: And the Kb (DNA [11])?
Answer: 5.24 10^4/M

Question: And the Activity (HEK293 [12])?
Answer: 15%

Question: What about the inhibition of growth at 10 µM (NCI-H226) of the same compound?
Answer: < 10%

Question: What about the Kq (Calf thymus DNA [13]) of the same compound?
Answer: 1.88 10^11/M/s

Question: And the inhibition of growth at 10 µM (Hs-578T)?
Answer: 17.6%

Question: And the Ratio [14]?
Answer: 2

Question: And the inhibition of growth at 10 µM (SN12C)?
Answer: < 10%

Question: What about the inhibition of growth at 10 µM (SR) of the same compound?
Answer: 79.2%

Question: And the Activity (DNA [15])?
Answer: Active

Question: What about the Kb (DNA [16]) of the same compound?
Answer: 7.09 10^5/M

Question: And the Kq (DNA [17])?
Answer: 3.46 10^11/M/s

Question: And the Kb (Albumin [18])?
Answer: 9.35 10^4/M

Question: And the inhibition of growth at 10 µM (NCI-H460)?
Answer: 19.7%

Question: And the inhibition of growth at 10 µM (RPMI-8226)?
Answer: 66.1%

Question: And the Activity (HEK293 [19])?
Answer: 5%

Question: And the pIC50 (A549 [20])?
Answer: 5.77

Question: What about the inhibition of growth at 10 µM (PC-3) of the same compound?
Answer: 51.9%

Question: What about the Activity (A549 [21]) of the same compound?
Answer: 90%

Question: What about the inhibition of growth at 10 µM (NCI-H522) of the same compound?
Answer: 47.6%

Question: What about the inhibition of growth at 10 µM (LOX IMVI) of the same compound?
Answer: 36.7%

Question: And the Activity (Albumin [22])?
Answer: Active

Question: What about the inhibition of growth at 10 µM (UACC-62) of the same compound?
Answer: 30.3%

Question: What about the Activity (HEK293 [23]) of the same compound?
Answer: 6%

Question: What about the Activity (Calf thymus DNA [24]) of the same compound?
Answer: Active

Question: And the inhibition of growth at 10 µM (OVCAR-8)?
Answer: 21.7%

Question: And the Activity (Albumin [25])?
Answer: Active
